Assay results reported in patent US7994141B2, “Compositions comprising compounds of natural origin for damaged skin” (Biospectrum, Inc., priority 2006, dated 2011).

What was measured:
Settings in all cases: individual compound of natural origin
[1] = Determination of antioxidant activity (DPPH method); assay type: biochemical
Procedure: DPPH (1,1-diphenyl-2-picrylhydrazyl) is a chromogenic radical and thus, can be used to directly confirm the radical scavenging activity of the samples. The samples were dissolved in 4 ml of distilled water or solvent (methanol) and then, mixed well with 1 ml of 100 μM DPPH. Subsequently, the samples were incubated at room temperature for 30 minutes. The absorbance of the remaining DPPH was measured at 517 nm. As a blank of the present experiment, distilled water or solvent was used, and as a control, an experimental group composed only of DPPH in distilled water or solvent without the sample was used. Further, vitamin C was used as a positive control.

Human keratinocytes = assay: Wound-healing effect: cell migration assay; assay type: cell-based; parameters: key: −: No effect; +: Weak effect; ++: Moderate effect; +++: Strong effect; ++++: Very strong effect
Procedure: The wound-healing effect was determined by a cell migration assay. Human keratinocytes were confluently cultured in keratinocyte-SFM media and then, treated with […] mitomycin C (Sigma Chemical) to inhibit cell growth for the measurement of cell migration. The confluent cell monolayer was scratched using a yellow pipette tip to create a cell-free region and then, the cell debris was washed with PBS. After the treatment, the samples were cultured in keratinocyte-SFM media for 48 hrs to observe the effect on cell migration (Cecile A et. al., Molecular Biology of the Cell, 2002; 13: 3845-3858).

[2] = Moisturizing effect: transepidermal water loss (Tewameter TM210); assay type: in vivo, human subjects; parameters: key: −: No effect; +: Weak effect; ++: Moderate effect; +++: Strong effect; ++++: Very strong effect
Procedure: The transepidermal water loss was measured using a Tewameter TM210 (Germany). The measurement was performed twice, before the treatment and at 2 weeks after the treatment, and the results were statistically compared. The measurement was performed in a temperature/humidity controlled room (no air flow, no light, at a temperature of 22° C. and relative humidity of 40%). The measurement was performed in the abdomen of thirty subjects.

[3] = system: NF-kB luciferase activity; assay: Anti-inflammatory effect: inhibition test of NF-kB luciferase activity (TNF-alpha treated fibroblasts); assay type: cell-based, Human fibroblasts and mouse fibroblasts, NIH3T3; parameters: key: −: No effect; +: Weak effect; ++: Moderate effect; +++: Strong effect; ++++: Very strong effect
Procedure: The anti-inflammatory effect was determined by the inhibition test of NF-kB luciferase activity. Human fibroblasts and mouse fibroblasts, NIH3T3 were transfected with NF-kB reporter DNA using SuperFect to induce transformation. At 24 hrs after transformation, the samples were treated with TNF-alpha (10 ng/ml). After 16 hrs, the cells were collected, and luminescence measurements were made […] using a Luminometer (Berthold, Germany).

Structure (SMILES)	Antioxidant effect [1]	Wound-healing effect (Human keratinocytes)	Moisturizing effect [2]	Anti-inflammatory effect [3]
O=C1O[C@H]([C@@H](O)CO)C(O)=C1O [Ascorbic acid]	+	++	−	+
O=c1cc(-c2ccccc2)oc2cc(O)c(O)c(O)c12 [Baicalein]	++	++	++	++
O=C(O)/C=C/c1ccc(O)c(O)c1 [Caffeic acid]	+	+	+	+
CCc1ccc(C)c2ccc(C)c-2c1 [Chamazulene]	++	++	++	++
COC1=C(OC)C(=O)C(C/C=C(\C)CC/C=C(\C)CC/C=C(\C)CC/C=C(\C)CC/C=C(\C)CC/C=C(\C)CC/C=C(\C)CC/C=C(\C)CC/C=C(\C)CCC=C(C)C)=C(C)C1=O [Coenzyme Q10]	+	+	+	−
O=c1ccc2ccccc2o1 [Coumarin]	+	+	−	++
C[C@@H]1CC[C@@]2(OC1)O[C@H]1C[C@H]3[C@@H]4CC=C5C[C@@H](O)CC[C@]5(C)[C@H]4CC[C@]3(C)[C@H]1[C@@H]2C [Diosgenin]	−	++	+	+
CCCCCCCC/C=C/CCCCCCCC(=O)O [Elaidic acid]	+	+	−	+
Cc1cc(O)c2c(c1)C(=O)c1cc(O)cc(O)c1C2=O [Emodin]	++	++	++	++
CC1=C(O)C(=O)C(C)O1 (stereo not shown) [Furaneol]		+	+	+
O=C(O)c1cc(O)c(O)c(O)c1 [Garlic acid]	+	+	−	+
CC(C)=CCC/C(C)=C/CO [Geraniol]		+	−	++
CC(C)=CCC[C@](C)(O[C@@H]1O[C@H](CO[C@@H]2O[C@H](CO)[C@@H](O)[C@H](O)[C@H]2O)[C@@H](O)[C@H](O)[C@H]1O)[C@H]1CC[C@]2(C)[C@@H]1[C@H](O)C[C@@H]1[C@@]3(C)CC[C@H](O[C@@H]4O[C@H](CO)[C@@H](O)[C@H](O)[C@H]4O[C@@H]4O[C@H](CO)[C@@H](O)[C@H](O)[C@H]4O)C(C)(C)[C@@H]3CC[C@]12C [Ginsenoside Rb1]	−	+	+	+
CC1(C)[C@@H](O[C@H]2O[C@H](C(=O)O)[C@@H](O)[C@H](O)[C@H]2O[C@@H]2O[C@H](C(=O)O)[C@@H](O)[C@H](O)[C@H]2O)CC[C@]2(C)[C@H]3C(=O)C=C4[C@@H]5C[C@@](C)(C(=O)O)CC[C@]5(C)CC[C@@]4(C)[C@]3(C)CC[C@@H]12 [Glycyrrhizin]	++	++	++	++
C=CCc1ccc(O)c(-c2ccc(O)c(CC=C)c2)c1 [Honokiol]	+	++	−	+
OCCc1ccc(O)c(O)c1 [Hydroxytyrosol]		+	+	+
OCc1c[nH]c2ccccc12 [Indole-3-carbinol]	+	+	−	+
CC/C=C\C/C=C\C/C=C\CCCCCCCC(=O)O [Linolenic acid]		++	++	++
C[C@H]1[C@H](C)CC[C@]2(C(=O)O)CC[C@]3(C)C(=CC[C@@H]4[C@@]5(C)C[C@@H](O)[C@H](O)[C@@](C)(CO)[C@@H]5[C@H](O)C[C@]43C)[C@H]12 [Madecassic acid]		++	++	++
C=CCc1ccc(O)c(-c2cc(CC=C)ccc2O)c1 [Magnolol]	+	+	−	+
CCCCCCCC/C=C\CCCCCCCC(=O)O [Oleic acid]	+	+	+	+
O=P(O)(O)O[C@H]1[C@H](OP(=O)(O)O)[C@@H](OP(=O)(O)O)[C@H](OP(=O)(O)O)[C@@H](OP(=O)(O)O)[C@H]1OP(=O)(O)O [Phytic acid]	+	++	−	+
Oc1cc(O)cc(/C=C/c2ccccc2)c1 [Pinosylvin]	+	++	−	+
O=c1c(O)c(-c2ccc(O)c(O)c2)oc2cc(O)cc(O)c12 [Quercetin]	++	++	++	++
CC1=C(/C=C/C(C)=C/C=C/C(C)=C/CO)C(C)(C)CCC1 [Retinol]	+	+	−	+
O=C(/C=C/c1ccc(O)c(O)c1)O[C@H](Cc1ccc(O)c(O)c1)C(=O)O [Rosmarinic acid]	++	++	++	++
C[C@@H]1O[C@@H](OC[C@H]2O[C@@H](Oc3c(-c4ccc(O)c(O)c4)oc4cc(O)cc(O)c4c3=O)[C@H](O)[C@@H](O)[C@@H]2O)[C@H](O)[C@H](O)[C@H]1O [Rutin]		+	+	+
Cc1c(C)c2c(c(C)c1O)CC[C@@](C)(CCC[C@H](C)CCC[C@H](C)CCCC(C)C)O2 [alpha-Tocopherol]	+	++		+
O=C(O)CCCCC1CCSS1 (stereo not drawn) [alpha-lipoic acid]	+	++	−	+
